Reference: patent US20250145665A1, “MACROCYCLIC PEPTIDES USEFUL AS MODULATORS OF TNF ALPHA” (Bristol-Myers Squibb Company, priority 2023, published 2025)
Starred links: 1 amine or outer side, 2 acyl side, 3 side chain; linkers in the order of their positions; H or OH if unused. Positions of bridges follow the written chain, without caps; N, C: chain ends. Non-standard residues stand in square brackets, D forms with d. Residues, ends and D or L forms follow the SMILES beside them. *: point of attachment. Bip(4'-NHCO-C6H4-4-CH2COOH) = N[C@@H](Cc1ccc(-c2ccc(NC(=O)c3ccc(CC(=O)O)cc3)cc2)cc1)C(=O)O; Bip(4'-(3-HOOC-benzamido)) = N[C@@H](Cc1ccc(-c2ccc(NC(=O)c3cccc(C(=O)O)c3)cc2)cc1)C(=O)O; X17 = O=C(Nc1cccc(-c2ccc(C[C@H](N[*:1])C(=O)[*:2])cc2)c1)c1coc2ccccc12; Bip(4'-NH) = O=C([C@H](Cc1ccc(-c2ccc(N[*:3])cc2)cc1)N[*:1])[*:2]; Bip(4'-CONHMe) = CNC(=O)c1ccc(-c2ccc(C[C@H](N)C(=O)O)cc2)cc1; Bip(4'-COOH) = N[C@@H](Cc1ccc(-c2ccc(C(=O)O)cc2)cc1)C(=O)O; Bip(4'-NHAc) = CC(=O)Nc1ccc(-c2ccc(C[C@H](N)C(=O)O)cc2)cc1; Ala(imidazol-2-yl) = N[C@@H](Cc1ncc[nH]1)C(=O)O; dArg(ω-Bn) = N=C(NCCC[C@@H](N)C(=O)O)NCc1ccccc1; Ala(morpholin-4-yl) = N[C@@H](CN1CCOCC1)C(=O)O; Benzoyl(3-OCH2COOH) = O=C(O)COc1cccc(C(=O)*)c1; Phe(3-CONH2) = NC(=O)c1cccc(C[C@H](N)C(=O)O)c1; Bip = N[C@@H](Cc1ccc(-c2ccccc2)cc1)C(=O)O; 2Pal = N[C@@H](Cc1ccccn1)C(=O)O; 4Pal = N[C@@H](Cc1ccncc1)C(=O)O; Tic = O=C(O)[C@@H]1Cc2ccccc2CN1; 2Thi = N[C@@H](Cc1cccs1)C(=O)O; Cha = N[C@@H](CC1CCCCC1)C(=O)O; Tle = CC(C)(C)[C@H](N)C(=O)O; Pip = O=C(O)[C@@H]1CCCCN1; Sar = CNCC(=O)O

The compounds below were run against TNFα (Homo sapiens, UniProt P01375) (assay: TNF-Induced HEK-Blue Assay). Conditions: HEK-Blue-CD40L cells, NF-kB-driven secreted alkaline phosphatase reporter; TNFα 0.5 ng/ml; 18 h; read-out: TNF induced HEK-Blue assay IC50 value.
Format: cell-based

Chain of TNFα (P01375 77-233 limits assumed): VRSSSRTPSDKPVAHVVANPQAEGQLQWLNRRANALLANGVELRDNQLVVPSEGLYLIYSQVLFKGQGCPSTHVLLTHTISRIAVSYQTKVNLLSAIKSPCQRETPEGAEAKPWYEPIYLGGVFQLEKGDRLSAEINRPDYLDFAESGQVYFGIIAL

IC50 [nM]	SMILES
< 50	CC[C@H](C)[C@@H]1NC(=O)[C@@H](CCCNC(=N)N)NC(=O)[C@H](CC(=O)O)NC(=O)[C@H](Cc2cnc[nH]2)NC(=O)CN(C)C(=O)[C@H](Cc2ccc(-c3ccc(NC(=O)c4ccc(CC(=O)O)cc4)cc3)cc2)NC(=O)[C@H](Cc2ccc(-c3ccc(C(=O)O)cc3)cc2)NC(=O)[C@H](CN2CCOCC2)NC(=O)CSC[C@@H](C(=O)NCC(N)=O)NC(=O)[C@H](CC(C)C)NC(=O)[C@H](Cc2cnc[nH]2)NC(=O)[C@H](C(C)C)NC(=O)[C@@H]2CCCN2C1=O [Example 487] ({CH2CO}-[Ala(morpholin-4-yl)][Bip(4'-COOH)][Bip(4'-NHCO-C6H4-4-CH2COOH)][Sar]HD[dR]IPVHLCG-NH2; thioether N-13)
< 50	CC[C@H](C)[C@@H]1NC(=O)[C@@H](CCCNC(=N)N)NC(=O)[C@H](CC(=O)O)NC(=O)[C@H](Cc2cnc[nH]2)NC(=O)CN(C)C(=O)[C@H](Cc2ccc(-c3ccc(C(=O)NC)cc3)cc2)NC(=O)[C@H](Cc2ccc(-c3ccc(C(=O)O)cc3)cc2)NC(=O)[C@H](CC2CCCCC2)NC(=O)CSC[C@@H](C(=O)NCC(N)=O)NC(=O)[C@H](CC(C)C)NC(=O)[C@H](Cc2cnc[nH]2)NC(=O)[C@H](C(C)C)NC(=O)[C@@H]2CCCN2C1=O [Example 331] ({CH2CO}-[Cha][Bip(4'-COOH)][Bip(4'-CONHMe)][Sar]HD[dR]IPVHLCG-NH2; thioether N-13)
50 to 200	CC(C)C[C@@H]1NC(=O)[C@H](Cc2cccs2)NC(=O)[C@H](C(C)C)NC(=O)[C@@H]2CCCN2C(=O)[C@H](C(C)C)NC(=O)[C@@H](CCCNC(=N)N)NC(=O)[C@H](CC(=O)O)NC(=O)[C@H](Cc2ccccn2)NC(=O)CN(C)C(=O)[C@H](Cc2ccc(-c3ccc(NC(=O)c4cccc(OCC(=O)O)c4)cc3)cc2)NC(=O)[C@H](Cc2ccc(-c3ccc(C(=O)O)cc3)cc2)NC(=O)[C@H](CC2CCCCC2)NC(=O)CSC[C@@H](C(=O)NCC(N)=O)NC1=O [Example 614] ({CH2CO}-[Cha][Bip(4'-COOH)][Bip(4'-NH)](Benzoyl(3-OCH2COOH))[Sar][2Pal]D[dR]VPV[2Thi]LCG-NH2; thioether N-13)
< 50	CC(=O)Nc1ccc(-c2ccc(C[C@@H]3NC(=O)[C@H](Cc4ccc(-c5ccc(C(=O)O)cc5)cc4)NC(=O)[C@H](CN4CCOCC4)NC(=O)CSC[C@@H](C(=O)NCC(N)=O)NC(=O)[C@H](CC(C)C)NC(=O)[C@H](Cc4ncc[nH]4)NC(=O)[C@H](C(C)C)NC(=O)[C@@H]4CCCN4C(=O)[C@H](C(C)C)NC(=O)[C@@H](CCCNC(=N)N)NC(=O)[C@H](CC(=O)O)NC(=O)[C@H](Cc4cccs4)NC(=O)CN(C)C3=O)cc2)cc1 [Example 462] ({CH2CO}-[Ala(morpholin-4-yl)][Bip(4'-COOH)][Bip(4'-NHAc)][Sar][2Thi]D[dR]VPV[Ala(imidazol-2-yl)]LCG-NH2; thioether N-13)
< 50	CC(C)C[C@@H]1NC(=O)[C@H](CCCNC(=N)N)NC(=O)[C@H](C(C)C)NC(=O)[C@@H]2CCCN2C(=O)[C@H](C(C)C)NC(=O)[C@@H](CCCNC(=N)N)NC(=O)[C@H](CC(=O)O)NC(=O)[C@@H]2CCCN2C(=O)CN(C)C(=O)[C@H](Cc2ccc(-c3cccc(NC(=O)c4coc5ccccc45)c3)cc2)NC(=O)[C@H](Cc2ccc(-c3ccccc3)cc2)NC(=O)[C@H](CN2CCOCC2)NC(=O)CSC[C@@H](C(=O)NCC(N)=O)NC1=O [Example 344] ({CH2CO}-[Ala(morpholin-4-yl)][Bip][X17][Sar]PD[dR]VPVRLCG-NH2; thioether N-13)
200 to 2000	CC(C)C[C@@H]1NC(=O)CSC[C@@H](C(=O)NCC(N)=O)NC(=O)[C@H](CC(C)C)NC(=O)[C@H](CCCNC(=N)N)NC(=O)[C@H](C(C)C)NC(=O)[C@@H]2CCCN2C(=O)[C@H](C(C)C)NC(=O)[C@H](CCCNC(=N)N)NC(=O)[C@H](CC(=O)O)NC(=O)[C@@H]2CCCN2C(=O)CN(C)C(=O)[C@H](Cc2ccc(-c3ccccc3)cc2)NC(=O)[C@H](Cc2ccc(-c3ccccc3)cc2)NC1=O [Example 8] ({CH2CO}-L[Bip][Bip][Sar]PDRVPVRLCG-NH2; thioether N-13)
< 50	CC(C)C[C@@H]1NC(=O)[C@H](Cc2cccs2)NC(=O)[C@H](C(C)C)NC(=O)[C@@H]2CCCN2C(=O)[C@H](C(C)C)NC(=O)[C@@H](CCCNC(=N)N)NC(=O)[C@H](CC(=O)O)NC(=O)[C@H](Cc2ccccn2)NC(=O)CN(C)C(=O)[C@H](Cc2ccc(-c3ccc(NC(=O)c4cccc(OCC(=O)O)c4)cc3)cc2)NC(=O)[C@H](Cc2ccc(-c3ccc(C(=O)O)cc3)cc2)NC(=O)[C@H](CN2CCOCC2)NC(=O)CSC[C@@H](C(=O)NCC(N)=O)NC1=O [Example 609] ({CH2CO}-[Ala(morpholin-4-yl)][Bip(4'-COOH)][Bip(4'-NH)](Benzoyl(3-OCH2COOH))[Sar][2Pal]D[dR]VPV[2Thi]LCG-NH2; thioether N-13)
50 to 200	CC(C)[C@@H]1NC(=O)[C@H](CCCNC(=N)N)NC(=O)[C@H](C(C)C)NC(=O)[C@@H]2CCCN2C(=O)[C@H](C(C)C)NC(=O)[C@H](CCCNC(=N)N)NC(=O)[C@H](CC(=O)O)NC(=O)[C@@H]2CCCN2C(=O)CN(C)C(=O)[C@H](Cc2ccc(-c3ccccc3)cc2)NC(=O)[C@H](Cc2ccncc2)NC(=O)[C@H](CN2CCOCC2)NC(=O)CSC[C@@H](C(=O)NCC(N)=O)NC1=O [Example 86] ({CH2CO}-[Ala(morpholin-4-yl)][4Pal][Bip][Sar]PDRVPVRVCG-NH2; thioether N-13)
50 to 200	CC(=O)Nc1ccc(-c2ccc(C[C@@H]3NC(=O)[C@H](Cc4ccc(-c5ccccc5)cc4)NC(=O)[C@H](CC4CCCCC4)NC(=O)CSC[C@@H](C(=O)NCC(N)=O)NC(=O)[C@H](CC(C)C)NC(=O)[C@H](Cc4cccc(C(N)=O)c4)NC(=O)[C@H](C(C)C)NC(=O)[C@@H]4CCCN4C(=O)[C@H](C(C)C)NC(=O)[C@@H](CCCNC(=N)N)NC(=O)[C@H](CC(=O)O)NC(=O)[C@@H]4CCCN4C(=O)CN(C)C3=O)cc2)cc1 [Example 240] ({CH2CO}-[Cha][Bip][Bip(4'-NHAc)][Sar]PD[dR]VPV[Phe(3-CONH2)]LCG-NH2; thioether N-13)
< 50	CC(=O)Nc1ccc(-c2ccc(C[C@@H]3NC(=O)[C@H](Cc4ccc(-c5ccc(C(=O)O)cc5)cc4)NC(=O)[C@H](CN4CCOCC4)NC(=O)CSC[C@@H](C(=O)NCC(N)=O)NC(=O)[C@H](CC(C)C)NC(=O)[C@H](Cc4ccc(O)cc4)NC(=O)[C@H](C(C)C)NC(=O)[C@@H]4CCCCN4C(=O)[C@H](C(C)C)NC(=O)[C@@H](CCCNC(=N)N)NC(=O)[C@H](CC(=O)O)NC(=O)[C@H](Cc4ccc(O)cc4)NC(=O)CN(C)C3=O)cc2)cc1 [Example 168] ({CH2CO}-[Ala(morpholin-4-yl)][Bip(4'-COOH)][Bip(4'-NHAc)][Sar]YD[dR]V[Pip]VYLCG-NH2; thioether N-13)
< 50	CC(C)C[C@@H]1NC(=O)[C@H](Cc2ccc(O)cc2)NC(=O)[C@H](C(C)C)NC(=O)[C@@H]2Cc3ccccc3CN2C(=O)[C@H](C(C)C)NC(=O)[C@@H](CCCNC(=N)N)NC(=O)[C@H](CC(=O)O)NC(=O)[C@H](Cc2ccc(O)cc2)NC(=O)CN(C)C(=O)[C@H](Cc2ccc(-c3ccccc3)cc2)NC(=O)[C@H](Cc2ccc(-c3ccc(C(=O)O)cc3)cc2)NC(=O)[C@H](CN2CCOCC2)NC(=O)CSC[C@@H](C(=O)NCC(N)=O)NC1=O [Example 148] ({CH2CO}-[Ala(morpholin-4-yl)][Bip(4'-COOH)][Bip][Sar]YD[dR]V[Tic]VYLCG-NH2; thioether N-13)
< 50	CC[C@H](C)[C@@H]1NC(=O)[C@@H](CCCNC(=N)N)NC(=O)[C@H](CC(=O)O)NC(=O)[C@H](Cc2cnc[nH]2)NC(=O)CN(C)C(=O)[C@H](Cc2ccc(-c3ccc(NC(=O)c4cccc(OCC(=O)O)c4)cc3)cc2)NC(=O)[C@H](Cc2ccc(-c3ccc(C(=O)O)cc3)cc2)NC(=O)[C@H](C(C)(C)C)NC(=O)CSC[C@@H](C(=O)NCC(N)=O)NC(=O)[C@H](CC(C)C)NC(=O)[C@H](Cc2cccc(C(N)=O)c2)NC(=O)[C@H](C(C)C)NC(=O)[C@@H]2CCCN2C1=O [Example 591] ({CH2CO}-[Tle][Bip(4'-COOH)][Bip(4'-NH)](Benzoyl(3-OCH2COOH))[Sar]HD[dR]IPV[Phe(3-CONH2)]LCG-NH2; thioether N-13)
< 50	CC[C@H](C)[C@@H]1NC(=O)[C@@H](CCCNC(=N)N)NC(=O)[C@H](CC(=O)O)NC(=O)[C@H](Cc2cnc[nH]2)NC(=O)CN(C)C(=O)[C@H](Cc2ccc(-c3ccc(NC(=O)c4cccc(C(=O)O)c4)cc3)cc2)NC(=O)[C@H](Cc2ccc(-c3ccc(C(=O)O)cc3)cc2)NC(=O)[C@H](CC2CCCCC2)NC(=O)CSC[C@@H](C(=O)NCC(N)=O)NC(=O)[C@H](CC(C)C)NC(=O)[C@H](Cc2cnc[nH]2)NC(=O)[C@H](C(C)C)NC(=O)[C@@H]2CCCN2C1=O [Example 530] ({CH2CO}-[Cha][Bip(4'-COOH)][Bip(4'-(3-HOOC-benzamido))][Sar]HD[dR]IPVHLCG-NH2; thioether N-13)
50 to 200	CC[C@H](C)[C@@H]1NC(=O)[C@@H](CCCNC(=N)NCc2ccccc2)NC(=O)[C@H](CC(=O)O)NC(=O)[C@H](Cc2cnc[nH]2)NC(=O)CN(C)C(=O)[C@H](Cc2ccc(-c3ccc(NC(=O)c4cccc(OCC(=O)O)c4)cc3)cc2)NC(=O)[C@H](Cc2ccc(-c3ccc(C(=O)O)cc3)cc2)NC(=O)[C@H](CC2CCCCC2)NC(=O)CSC[C@@H](C(=O)NCC(N)=O)NC(=O)[C@H](CC(C)C)NC(=O)[C@H](Cc2cnc[nH]2)NC(=O)[C@H](C(C)C)NC(=O)[C@@H]2CCCN2C1=O [Example 585] ({CH2CO}-[Cha][Bip(4'-COOH)][Bip(4'-NH)](Benzoyl(3-OCH2COOH))[Sar]HD[dArg(ω-Bn)]IPVHLCG-NH2; thioether N-13)
< 50	CC[C@H](C)[C@@H]1NC(=O)[C@@H](CCCNC(=N)N)NC(=O)[C@H](CC(=O)O)NC(=O)[C@H](Cc2cnc[nH]2)NC(=O)CN(C)C(=O)[C@H](Cc2ccc(-c3ccc(NC(=O)c4ccc(CC(=O)O)cc4)cc3)cc2)NC(=O)[C@H](Cc2ccc(-c3ccccc3)cc2)NC(=O)[C@H](CC2CCCCC2)NC(=O)CSC[C@@H](C(=O)NCC(N)=O)NC(=O)[C@H](CC(C)C)NC(=O)[C@H](Cc2cnc[nH]2)NC(=O)[C@H](C(C)C)NC(=O)[C@@H]2CCCN2C1=O [Example 445] ({CH2CO}-[Cha][Bip][Bip(4'-NHCO-C6H4-4-CH2COOH)][Sar]HD[dR]IPVHLCG-NH2; thioether N-13)
